Test results: patent US6215002A, “Pyrrolopyrrolone derivatives as inhibitors of neutrophil elastase” (priority 1996, dated 2001)
Where a name gives a salt, the structure may show the parent alone.

Assays:
[1] = biological target: T1, human neutrophil elastase (Homo sapiens, UniProt P08246); assay: In vitro assay of human neutrophil elastase (HNE); type: biochemical; settings: 118 nM purified human neutrophil elastase, pH 8.6, 15 min incubation at 30° C., MeO-succinyl-alanyl-alanyl-prolyl-valyl-p-nitroanilide substrate; read-out: HNE IC50
T1 sequence (P08246 30-267): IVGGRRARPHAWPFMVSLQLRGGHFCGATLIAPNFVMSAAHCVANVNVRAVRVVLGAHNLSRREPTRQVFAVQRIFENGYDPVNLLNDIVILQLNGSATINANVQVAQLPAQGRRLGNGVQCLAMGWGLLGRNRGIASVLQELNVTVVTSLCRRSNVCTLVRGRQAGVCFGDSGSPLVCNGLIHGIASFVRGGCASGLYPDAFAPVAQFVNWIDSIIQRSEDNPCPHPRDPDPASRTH
Summary of the method: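 Residual activity was taken as the 10 min rate of absorbance rise at 405 nm after adding 0.6 mM MeO-succinyl-AAPV-p-nitroanilide. Curve fitting of activity against concentration gave IC50.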

Intracellular elastase = assay: Oral in vivo model using IL-8 induced lung infiltrates for the assessment of intracellular elastase inhibition (hamster test); settings: effective dose of less than 40 mg/kg, IL-8 intratracheal
Procedure: An Oral in vivo Model Using IL-8 Induced Lung Infiltrates For the Assessment of Intracellular Elastase Inhibition
Adult hamsters (100-150 g) are randomised into groups (n=4) and fasted overnight. Under gaseous anaesthetic (3% isofluorane) animals are dosed orally with 1 mL/100 g water as vehicle or containing predissolved compounds. Either at the same time, or subsequently under anaesthetic, animals are dosed intratracheally with 1 ug recombinant human IL-8 in 100 uL sterile saline. Six hours after IL-8 dosing animals are sacrificed using intrapertoneal pentobarbitone. The lungs are ravaged with 2×2.5 mL sterile saline and femurs are removed by dissection.
Intracellular elastase is prepared from neutrophils collected by lavage and from femoral bone marrow. This is achieved by sonication of the neutrophils and centrifugation to yield intracellular granules. These are disrupted by freeze/thawing and sonication. Elastase and myeloperoxidase assays are then performed on these samples to assess the efficacy of the compounds and to normalise for neutrophil recovery.

| SMILES | IC50 [1] [nM] | duration of effect (Intracellular elastase) |
| --- | --- | --- |
| CC(C)[C@H]1C(=O)N(S(C)(=O)=O)[C@H]2CCN(C(=O)c3ccc(CN4C(C)CCC4C)cc3)[C@H]12.Cl (relative stereo) [Example 186, rel-(3R,3aR,6aS)-4-[4-(2,5-Dimethyl-pyrrolidin-1-ylmethyl)-benzoyl]-3-isopropyl-1-methanesulfonyl-hexahydro-pyrrolo[3,2-b]pyrrol-2-one hydrochloride] | 53 | at least 6 hours |
| CC(C)[C@H]1C(=O)N(S(C)(=O)=O)[C@H]2CCN(C(=O)/C=C/CN3C(C)CCC3C)[C@H]12.Cl (relative stereo) [Example 149, rel-(3R,3aR,6aS)-4-[4-(2,5-Dimethyl-pyrrolidin-1-yl)-but-2E-enoyl]-3-isopropyl-1-methanesulfonyl-hexahydro-pyrrolo[3,2-b]pyrrol-2-one hydrochloride] | 46 | at least 6 hours |
| CC(=O)N1CCN(Cc2ccc(C(=O)N3CC[C@H]4[C@H]3[C@@H](C(C)C)C(=O)N4S(C)(=O)=O)cc2)CC1 (relative stereo) [Example 185, rel-(3R,3aR,6aS)-4-[4-Acetyl-piperazin-1-ylmethyl)-benzoyl]-3-isopropyl-1-methanesulfonyl-hexahydro-pyrrolo[3,2-b]pyrrol-2-one hydrochloride] | 33 | at least 6 hours |
| CC(C)[C@H]1C(=O)N(S(C)(=O)=O)[C@H]2CCN(C(=O)/C=C/CN3C(C)CCCC3C)[C@H]12.Cl (relative stereo) [Example 139, rel-(3R,3aR,6aS)-4-[4-(2,6-Dimethyl-piperidin-1-yl)-but-2E-enoyl]-3-isopropyl-1-methanesulfonyl-hexahydro-pyrrolo[3,2-b]pyrrol-2-one hydrochloride] | 55 | at least 6 hours |
| CCC[C@H]1C(=O)N(S(C)(=O)=O)[C@H]2CCN(C(=O)/C=C/CN3CCN(C)CC3)[C@H]12.Cl.Cl (relative stereo) [Example 254, rel-(3R,3aR,6aS)-1-Methanesulfonyl-4-[4-(4-methyl-piperazin-1-yl)-but-2E-enoyl]-3-propyl-hexahydro-pyrrolo[3,2-b]pyrrol-2-one dihydrochloride] | 97 | at least 6 hours |
| CC(C)[C@H]1C(=O)N(S(C)(=O)=O)[C@H]2CCN(C(=O)CCCCCN3CCCCCC3)[C@H]12 (relative stereo) [Example 60, rel-(3R,3aR,6aS)-4-(6-Azepin-1-yl-hexanoyl-3-isopropyl-1-methanesulfonyl)-hexahydro-pyrrolo[3,2-b]pyrrol-2-one hydrochloride] | 47 | at least 6 hours |
| CCC[C@H]1C(=O)N(S(C)(=O)=O)[C@H]2CCN(C(=O)CCCCCN3CCCCCC3)[C@H]12 (relative stereo) [Example 59, hydrochloride] | 39 | at least 6 hours |
| CC(C)[C@H]1C(=O)N(S(C)(=O)=O)[C@H]2CCN(C(=O)/C=C/CN3CCCCCC3)[C@H]12 (relative stereo) [Example 136, hydrochloride] | 22 | at least 6 hours |
| CCN(CC)C/C=C/C(=O)N1CC[C@H]2[C@H]1[C@@H](C(C)C)C(=O)N2S(C)(=O)=O (relative stereo) [Example 145, rel-(3R,3aR,6aS)-4-Diethylamino-but-2E-enoyl)-3-isopropyl-1-methanesulfonyl-hexahydro-pyrrolo[3,2-b]pyrrol-2-one hydrochloride] | 39 | at least 6 hours |
| CCC[C@H]1C(=O)N(S(C)(=O)=O)[C@H]2CCN(C(=O)c3ccc(CN4CCCCC4)cc3)[C@H]12 (relative stereo) [Example 62, rel-(3R,3aR,6aS)-1-Methanesulfonyl-1-4-(4-piperidin-1-ylmethyl-benzoyl)-3-propyl-hexahydro-pyrrolo[3,2-b]pyrrol-2-one] | 10 | at least 6 hours |
